This data set relates to CCRIS mutagenicity, Ames/micronucleus/aberration tests. Nature of the data set: CCRIS mutagenicity studies.
Setting [1] is: Test System: AMES SALMONELLA TYPHIMURIUM, Strain/Indicator: TA98, Metabolic Activation: NONE, Method: STANDARD PLATE.
The mark [2] stands for this setting: Test System: AMES SALMONELLA TYPHIMURIUM, Strain/Indicator: TA100, Metabolic Activation: NONE, Method: STANDARD PLATE.
[3] abbreviates: Test System: AMES SALMONELLA TYPHIMURIUM, Strain/Indicator: TA98, Metabolic Activation: NONE, Method: PREINCUBATION
The mark [4] stands for this setting: Test System: AMES SALMONELLA TYPHIMURIUM, Strain/Indicator: TA100, Metabolic Activation: NONE, Method: PREINCUBATION
Where [5] appears, read: Test System: Mouse lymphoma, Strain/Indicator: L5178Y (tk+/tk-), Metabolic Activation: None, Method: Suspension/plate.
[6] abbreviates: Test System: Mouse lymphoma, Strain/Indicator: L5178Y (tk+/tk-), Metabolic Activation: Rat, Liver, S-9, Aroclor 1254, Method: Suspension/plate.
The mark [7] stands for this setting: Test System: AMES SALMONELLA TYPHIMURIUM, Strain/Indicator: TA98, Metabolic Activation: RAT, LIVER, S-9, AROCLOR 1254, Method: STANDARD PLATE.
The mark [8] stands for this setting: Test System: AMES SALMONELLA TYPHIMURIUM, Strain/Indicator: TA100, Metabolic Activation: RAT, LIVER, S-9, AROCLOR 1254, Method: STANDARD PLATE.

Activity calls are given as the source filed them. The rule behind the calls is not given here.

`O=[N+]([O-])c1ccc2c([N+](=O)[O-])cc3ccccc3c2c1`: the mutagenic call by setting is: (Test System: AMES SALMONELLA TYPHIMURIUM, Strain/Indicator: TA98(1,8-DNP6), Metabolic Activation: NONE, Method: STANDARD PLATE) “active; positive”; (Test System: AMES SALMONELLA TYPHIMURIUM, Strain/Indicator: TA98(NR), Metabolic Activation: NONE, Method: STANDARD PLATE) “active; positive”; under setting [1], “active; positive”; under setting [2], “active; positive”; (Test System: AMES SALMONELLA TYPHIMURIUM, Strain/Indicator: YG1021, Metabolic Activation: NONE, Method: STANDARD PLATE) “active; positive”; (Test System: AMES SALMONELLA TYPHIMURIUM, Strain/Indicator: YG1024, Metabolic Activation: NONE, Method: STANDARD PLATE) “active; positive”. The mutagenic call is “active; positive” (Test System: AMES SALMONELLA TYPHIMURIUM, Strain/Indicator: YG1026, Metabolic Activation: NONE, Method: STANDARD PLATE) and “active; positive” (Test System: AMES SALMONELLA TYPHIMURIUM, Strain/Indicator: YG1029, Metabolic Activation: NONE, Method: STANDARD PLATE).
For `O=[N+]([O-])c1ccc2ccc3cccc4c3c2c1C1OC41` (stereo not given), the mutagenic call is “active; positive” (Test System: AMES SALMONELLA TYPHIMURIUM, Strain/Indicator: TA98(1,8-DNP6), Metabolic Activation: RAT, LIVER, S-9, PHENOBARBITAL AND 5,6-BENZOFLAVONE, Method: PREINCUBATION); “active; positive” (Test System: AMES SALMONELLA TYPHIMURIUM, Strain/Indicator: TA98(NR), Metabolic Activation: NONE, Method: PREINCUBATION); “active; positive” under setting [3]; “inactive; negative” (Test System: AMES SALMONELLA TYPHIMURIUM, Strain/Indicator: TA98, Metabolic Activation: RAT, LIVER, S-9, PHENOBARBITAL AND 5,6-BENZOFLAVONE, Method: PREINCUBATION); “active; positive” under setting [4]; “inactive; negative” (Test System: AMES SALMONELLA TYPHIMURIUM, Strain/Indicator: TA100, Metabolic Activation: RAT, LIVER, S-9, PHENOBARBITAL AND 5,6-BENZOFLAVONE, Method: PREINCUBATION). The mutagenic call (Test System: CHINESE HAMSTER OVARY, Strain/Indicator: CHO (HGPRT)/6-THIOGUANINE, Metabolic Activation: NONE, Method: STANDARD PLATE) is “active; positive”; the mutagenic call (Test System: CHINESE HAMSTER OVARY, Strain/Indicator: CHO (HGPRT)/6-THIOGUANINE, Metabolic Activation: RAT, LIVER, S-9, AROCLOR 1254, Method: STANDARD PLATE) was “active; positive”; the mutagenic call (Test System: UDS RODENT HEPATOCYTES, Strain/Indicator: THY INCORP, Metabolic Activation: NONE, Method: AUTORADIOGRAPHY) is “active; positive”.
Take `COCOC`: the mutagenic call was “inactive; negative” under setting [5] and “inactive; negative” under setting [6].
For the compound `CS(=O)(=O)c1ccc(O)c(N)c1`, the mutagenic call reads like this: (Test System: AMES SALMONELLA TYPHIMURIUM, Strain/Indicator: TA97, Metabolic Activation: HAMSTER, LIVER, S-9, AROCLOR 1254 (10 OR 30%), Method: PREINCUBATION) “inactive; negative”; (Test System: AMES SALMONELLA TYPHIMURIUM, Strain/Indicator: TA97, Metabolic Activation: NONE, Method: PREINCUBATION) “inactive; negative”; (Test System: AMES SALMONELLA TYPHIMURIUM, Strain/Indicator: TA97, Metabolic Activation: RAT, LIVER, S-9, AROCLOR 1254 (10 OR 30%), Method: PREINCUBATION) “inactive; negative”; (Test System: AMES SALMONELLA TYPHIMURIUM, Strain/Indicator: TA98, Metabolic Activation: HAMSTER, LIVER, S-9, AROCLOR 1254 (10 OR 30%), Method: PREINCUBATION) “inactive; negative”; under setting [3], “inactive; negative”; (Test System: AMES SALMONELLA TYPHIMURIUM, Strain/Indicator: TA98, Metabolic Activation: RAT, LIVER, S-9, AROCLOR 1254 (10 OR 30%), Method: PREINCUBATION) “inactive; negative”. The mutagenic call (Test System: AMES SALMONELLA TYPHIMURIUM, Strain/Indicator: TA100, Metabolic Activation: HAMSTER, LIVER, S-9, AROCLOR 1254 (10 OR 30%), Method: PREINCUBATION) was “inactive; negative”; the mutagenic call under setting [4] was “inactive; negative”; the mutagenic call (Test System: AMES SALMONELLA TYPHIMURIUM, Strain/Indicator: TA100, Metabolic Activation: RAT, LIVER, S-9, AROCLOR 1254 (10 OR 30%), Method: PREINCUBATION) was “inactive; negative”; the mutagenic call (Test System: AMES SALMONELLA TYPHIMURIUM, Strain/Indicator: TA1535, Metabolic Activation: HAMSTER, LIVER, S-9, AROCLOR 1254 (10 OR 30%), Method: PREINCUBATION) was “inactive; negative”; the mutagenic call (Test System: AMES SALMONELLA TYPHIMURIUM, Strain/Indicator: TA1535, Metabolic Activation: NONE, Method: PREINCUBATION) is “inactive; negative”; the mutagenic call (Test System: AMES SALMONELLA TYPHIMURIUM, Strain/Indicator: TA1535, Metabolic Activation: RAT, LIVER, S-9, AROCLOR 1254 (10 OR 30%), Method: PREINCUBATION) is “inactive; negative”. The mutagenic call (Test System: AMES SALMONELLA TYPHIMURIUM, Strain/Indicator: TA1537, Metabolic Activation: HAMSTER, LIVER, S-9, AROCLOR 1254 (10 OR 30%), Method: PREINCUBATION) is “inactive; negative”; the mutagenic call (Test System: AMES SALMONELLA TYPHIMURIUM, Strain/Indicator: TA1537, Metabolic Activation: NONE, Method: PREINCUBATION) is “inactive; negative”; the mutagenic call (Test System: AMES SALMONELLA TYPHIMURIUM, Strain/Indicator: TA1537, Metabolic Activation: RAT, LIVER, S-9, AROCLOR 1254 (10 OR 30%), Method: PREINCUBATION) is “inactive; negative”.
In the case of `O=CN(O)c1cccc(Cl)c1`, the mutagenic call reads like this: under setting [1], “inactive; negative”; under setting [7], “inactive; negative”; under setting [2], “inactive; negative”; under setting [8], “inactive; negative”.
Turning to `CO[C@@H]1[C@H](C)O[C@@H](O[C@@H]2C[C@H](Oc3cc(O)c4c(O)c5c(cc4c3)C[C@@H]([C@H](OC)C(=O)[C@@H](O)[C@@H](C)O)[C@H](O[C@@H]3C[C@H](OC4C[C@H](O)[C@@H](O)[C@H](C)O4)[C@@H](O)[C@H](C)O3)C5=O)O[C@H](C)[C@@H]2O)C[C@@H]1O` (stereo not given in full), under “Test System: CHINESE HAMSTER OVARY, Strain/Indicator: CHO (HGPRT)/6-THIOGUANINE, Metabolic Activation: NONE, Method: PREINCUBATION”, the mutagenic call was “active; positive”.
Regarding `Nc1ccccc1C(=O)C[C@H](N)C(=O)O`, the mutagenic call under setting [4] was “inactive; negative”.
As to `O=S(=O)(O)c1ccc(-c2nnc(-c3ccccn3)nc2-c2ccc(S(=O)(=O)O)cc2)cc1`, the mutagenic call runs as follows: under setting [5], “inactive; negative”; under setting [6], “inactive; negative”.
In the case of `C[C@H]1C=C(C=O)[C@H](C=O)[C@@H](O)[C@@H]2CC(C)(C)C[C@@H]21`, the mutagenic call under setting [1] is “inactive; negative”; the mutagenic call under setting [2] is “inactive; negative”; the mutagenic call (Test System: AMES SALMONELLA TYPHIMURIUM, Strain/Indicator: TA2637, Metabolic Activation: NONE, Method: STANDARD PLATE) was “inactive; negative”.
In the case of `O=C1CNC(=O)N1`, the mutagenic call was “inactive; negative” (Test System: AMES SALMONELLA TYPHIMURIUM, Strain/Indicator: TA97, Metabolic Activation: NONE, Method: STANDARD PLATE); “inactive; negative” (Test System: AMES SALMONELLA TYPHIMURIUM, Strain/Indicator: TA97, Metabolic Activation: RAT, LIVER, S-9, AROCLOR 1254, Method: STANDARD PLATE); “inactive; negative” under setting [1]; “inactive; negative” under setting [7]; “inactive; negative” under setting [2]; “inactive; negative” under setting [8]. Further, the mutagenic call was “inactive; negative” (Test System: AMES SALMONELLA TYPHIMURIUM, Strain/Indicator: TA102, Metabolic Activation: NONE, Method: STANDARD PLATE) and “inactive; negative” (Test System: AMES SALMONELLA TYPHIMURIUM, Strain/Indicator: TA102, Metabolic Activation: RAT, LIVER, S-9, AROCLOR 1254, Method: STANDARD PLATE).
As to `O=C(O[C@@H]1Cc2c(O)cc(O)cc2O[C@H]1c1cc(O)c(O)c(O)c1)c1cc(O)c(O)c(O)c1`, the mutagenic call is, setting by setting: (Test System: Ames Salmonella typhimurium, Strain/Indicator: TA102, Metabolic Activation: None, Method: Preincubation) “inactive; negative”; (Test System: Ames Salmonella typhimurium, Strain/Indicator: TA102, Metabolic Activation: Rat, Liver, S-9, Aroclor 1254 in 0.154 M KCl, Method: Preincubation) “inactive; negative”.

The values above are taken from PubChem BioAssay AID1259407 (Chemical Carcinogenesis Research Information System (CCRIS), 2018).
